Test results published in the supplement of paper PMC10331698.
± gives the standard deviation of the averaged measurements.

Key:
Assay in all cases: level (log10 ratio to DMSO vehicle control); higher = higher biomarker level / cell amount than vehicle control
Nonafluoropentanamide = compound: NC(=O)C(F)(F)C(F)(F)C(F)(F)C(F)(F)F [Nonafluoropentanamide]; details: in DMSO
Method: (§1)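 BioMAP Diversity Plus panel of 12 human primary cell co-culture systems (3C, 4H, LPS, SAg, BT, BF4T, BE3C, CASM3C, HDF3CGF, KF3CT, MyoF, Mphg). Compounds were added 1 h before stimulation and left for 24 h (MyoF 48 h; BT 72 h for soluble read-outs or 6 d for IgG). Biomarkers were read by ELISA, cytotoxicity by SRB, PBMC viability and proliferation by Alamar Blue. Each well value was divided by the mean of 8 DMSO control wells on the same plate and log10 transformed; duplicate blinded samples were tested at 4 concentrations.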

[1] = compound: O=C(O)C=CC(F)(C(F)(F)F)C(F)(F)F [3-(Perfluoroisopropyl)-2-propenoic acid]; details: in DMSO
Method: as §1

Octafluoroadipamide = compound: NC(=O)C(F)(F)C(F)(F)C(F)(F)C(F)(F)C(N)=O [Octafluoroadipamide]; details: in DMSO
Method: as §1

Hexafluoroamylene glycol = compound: OCC(F)(F)C(F)(F)C(F)(F)CO [Hexafluoroamylene glycol]; details: in DMSO
Method: as §1

[2] = compound: C=CC(=O)OCC(F)(F)C(F)(F)C(F)(F)COC(=O)C=C [1H,1H,5H,5H-Perfluoro-1,5-pentanediol diacrylate]; details: 6700 nM; in DMSO
Method: as §1

[3] = compound: O=S(=O)(O)CCC(F)(F)C(F)(F)C(F)(F)C(F)(F)C(F)(F)C(F)(F)F [6:2 Fluorotelomer sulfonic acid]; details: in DMSO
Method: as §1

[4] = compound: FC(F)(F)C(F)(F)C(F)(F)C(F)(F)C(F)(F)C(F)(F)CC1CO1 [3-(Perfluorohexyl)-1,2-epoxypropane]; details: in DMSO
Method: as §1

Test System | level (log10) (Nonafluoropentanamide; 6700 nM) | level (log10) (Nonafluoropentanamide; 20000 nM) | level (log10) (Nonafluoropentanamide; 60000 nM) | level (log10) ([1]; 6700 nM) | level (log10) ([1]; 20000 nM) | level (log10) ([1]; 60000 nM) | level (log10) (Octafluoroadipamide; 6700 nM) | level (log10) (Octafluoroadipamide; 20000 nM) | level (log10) (Octafluoroadipamide; 60000 nM) | level (log10) (Hexafluoroamylene glycol; 6700 nM) | level (log10) (Hexafluoroamylene glycol; 20000 nM) | level (log10) (Hexafluoroamylene glycol; 60000 nM) | level (log10) [2] | level (log10) ([3]; 6700 nM) | level (log10) ([3]; 20000 nM) | level (log10) ([3]; 60000 nM) | level (log10) ([4]; 6700 nM) | level (log10) ([4]; 20000 nM) | level (log10) ([4]; 60000 nM)
4H:CD87/uPAR | -0.032 ± 0.0071 | 0.0085 ± 0.005 | 0.009 ± 0.041 | 0.034 ± 0.016 | 0.055 ± 0.054 | 0.105 ± 0.027 | -0.036 ± 0.045 | -0.031 ± 0.023 | -0.065 ± 0.0057 | 0.0015 ± 0.0021 | -0.0205 ± 0.037 | -0.027 ± 0.023 | -0.0665 ± 0.13 | -0.0005 ± 0.029 | 0.001 ± 0.031 | -0.002 ± 0.04 | 0.0645 ± 0.044 | 0.0775 ± 0.018 | 0.107 ± 0.022
4H:CD106/VCAM-1 | 0.003 ± 0.0028 | 0.0095 ± 0.0064 | 0.008 ± 0.013 | 0.0275 ± 0.011 | -0.0175 ± 0.019 | 0.016 ± 0.0014 | 0.0105 ± 0.028 | 0.015 | 0.0235 ± 0.018 | 0.0165 ± 0.029 | 0.0075 ± 0.013 | 0.033 ± 0.017 | -0.032 ± 0.045 | -0.0415 ± 0.0078 | -0.0245 ± 0.0021 | -0.0625 ± 0.033 | -0.002 ± 0.027 | -0.0225 ± 0.00071 | -0.0025 ± 0.011
4H:SRB | -0.0055 ± 0.00071 | -0.0055 ± 0.011 | 0.0055 ± 0.021 | 0.001 ± 0.018 | -0.0045 ± 0.029 | 0.004 ± 0.021 | -0.0065 ± 0.022 | -0.001 ± 0.025 | -0.003 ± 0.013 | -0.0055 ± 0.0035 | -0.004 ± 0.0071 | 0.005 ± 0.02 | -0.0105 ± 0.019 | -0.0015 ± 0.0021 | 0.0035 ± 0.018 | -0.004 ± 0.027 | 0.007 ± 0.0028 | -0.003 ± 0.0057 | 0.015 ± 0.023
4H:VEGFR2 | -0.0435 ± 0.0078 | -0.0135 ± 0.029 | -0.015 | -0.0145 ± 0.019 | 0.004 ± 0.05 | 0.01 ± 0.045 | 0.012 ± 0.05 | 0.025 ± 0.0057 | 0.0225 ± 0.03 | -0.061 ± 0.023 | -0.032 ± 0.013 | -0.0255 ± 0.0021 | -0.0225 ± 0.035 | -0.0215 ± 0.012 | -0.101 ± 0.0064 | -0.026 ± 0.021 | -0.0015 ± 0.019 | 0.0235 ± 0.011 | 0.017 ± 0.014
BE3C:Keratin 8/18 | -0.0245 ± 0.0064 | -0.035 ± 0.013 | -0.026 ± 0.0099 | 0.0015 ± 0.019 | -0.0065 ± 0.012 | 0.002 ± 0.0028 | -0.0115 ± 0.005 | -0.0185 ± 0.0092 | 0.0105 ± 0.043 | 0.002 ± 0.018 | -0.0155 ± 0.013 | 0.002 ± 0.02 | -0.0055 ± 0.044 | 0.001 ± 0.0071 | -0.0185 ± 0.00071 | -0.0085 ± 0.019 | -0.0045 ± 0.00071 | -0.0115 ± 0.00071 | 0.0015 ± 0.018
BE3C:MMP-1 | 0.003 ± 0.0071 | 0.052 ± 0.075 | 0.0795 ± 0.023 | 0.0495 ± 0.06 | 0.034 ± 0.061 | 0.085 ± 0.0028 | -0.01 ± 0.0028 | -0.023 ± 0.037 | 0.0305 ± 0.074 | -0.009 ± 0.017 | -0.03 ± 0.0057 | 0.015 ± 0.025 | 0.0115 ± 0.0078 | -0.013 ± 0.017 | -0.0105 ± 0.018 | 0.078 ± 0.054 | 0.022 ± 0.075 | 0.0255 ± 0.061 | 0.0655 ± 0.03
BE3C:PAI-I | -0.087 ± 0.033 | -0.137 ± 0.052 | -0.117 ± 0.044 | 0.0105 ± 0.00071 | -0.003 ± 0.0042 | 0.0065 ± 0.023 | -0.0145 ± 0.0021 | -0.0295 ± 0.025 | 0 ± 0.059 | -0.0205 ± 0.0021 | -0.017 ± 0.0042 | 0.0115 ± 0.0021 | 0.0535 ± 0.0064 | -0.005 ± 0.0014 | 0.011 ± 0.0085 | 0.0435 ± 0.016 | -0.003 ± 0.0014 | -0.006 ± 0.0028 | 0.013 ± 0.0099
BE3C:SRB | 0.0035 ± 0.011 | 0.0065 ± 0.0035 | -0.0005 ± 0.005 | -0.0005 ± 0.005 | -0.002 ± 0.0014 | 0.013 ± 0.021 | -0.0005 ± 0.0021 | -0.0055 ± 0.005 | 0.006 ± 0.011 | -0.002 ± 0.0014 | -0.006 ± 0.0028 | 0.0075 ± 0.0021 | -0.0035 ± 0.0021 | -0.005 ± 0.0099 | -0.001 ± 0.0028 | 0.0055 ± 0.011 | 0.008 ± 0.0057 | 0.0025 ± 0.0064 | 0.011 ± 0.018
BE3C:tPA | 0.003 ± 0.0085 | 0.008 ± 0.017 | 0.0095 ± 0.012 | -0.004 ± 0.045 | -0.0215 ± 0.042 | 0.022 ± 0.0071 | -0.0485 ± 0.00071 | -0.0395 ± 0.037 | -0.011 ± 0.052 | -0.0205 ± 0.00071 | -0.02 ± 0.0057 | 0.011 ± 0.031 | -0.0565 ± 0.033 | -0.0025 ± 0.016 | 0.029 ± 0.02 | 0.05 ± 0.025 | 0.0085 ± 0.019 | -0.014 ± 0.014 | 0.0325 ± 0.018
BE3C:uPA | 0.0115 ± 0.016 | 0.009 ± 0.0099 | 0.0105 ± 0.0078 | -0.0045 ± 0.005 | -0.001 ± 0.0057 | 0.0045 ± 0.0021 | -0.0155 ± 0.00071 | -0.0055 ± 0.0078 | 0.0005 ± 0.021 | -0.0055 ± 0.0078 | -0.013 ± 0.0014 | -0.004 | -0.015 ± 0.0028 | -0.008 ± 0.0099 | -0.005 ± 0.0028 | 0.01 ± 0.0057 | -0.005 ± 0.014 | -0.006 ± 0.0042 | 0.007 ± 0.02
CASM3C:CCL2/MCP-1 | -0.014 ± 0.0028 | 0.001 ± 0.0099 | -0.001 ± 0.0014 | 0.007 ± 0.017 | -0.0055 ± 0.011 | 0.023 ± 0.044 | -0.0095 ± 0.0078 | -0.0085 ± 0.0078 | 0.017 ± 0.02 | -0.0085 ± 0.0064 | -0.014 ± 0.011 | 0.012 ± 0.047 | 0 ± 0.0085 | -0.0125 ± 0.011 | -0.01 | 0.0225 ± 0.032 | 0.0035 ± 0.022 | 0 ± 0.031 | 0.034 ± 0.028
CASM3C:CD87/uPAR | -0.0215 ± 0.013 | -0.023 ± 0.0014 | 0.0025 ± 0.00071 | -0.006 ± 0.0057 | -0.0135 ± 0.012 | -0.015 ± 0.0042 | -0.023 ± 0.051 | -0.0495 ± 0.077 | -0.057 ± 0.041 | 0.003 ± 0.021 | 0.0125 ± 0.011 | -0.0195 ± 0.035 | -0.0095 ± 0.022 | 0.003 ± 0.035 | 0.0145 ± 0.019 | -0.0125 ± 0.012 | -0.0105 ± 0.023 | -0.025 ± 0.013 | -0.0165 ± 0.012
CASM3C:CD106/VCAM-1 | -0.0405 ± 0.039 | -0.0105 ± 0.0035 | 0.01 ± 0.042 | -0.0315 ± 0.013 | -0.015 ± 0.0014 | -0.0045 ± 0.071 | -0.0525 ± 0.005 | -0.04 ± 0.018 | -0.0275 ± 0.033 | -0.0015 ± 0.023 | -0.012 ± 0.025 | -0.0015 ± 0.021 | -0.119 ± 0.011 | -0.008 ± 0.011 | -0.0325 ± 0.022 | -0.0605 ± 0.026 | -0.024 ± 0.0099 | -0.0175 ± 0.022 | -0.01 ± 0.034
CASM3C:CD141/Thrombomodulin | 0.011 ± 0.089 | -0.024 ± 0.064 | -0.0285 ± 0.06 | -0.0215 ± 0.011 | -0.001 ± 0.023 | 0.0075 ± 0.033 | 0.0225 ± 0.0064 | 0.0095 ± 0.019 | 0.007 ± 0.02 | 0.009 ± 0.041 | 0 ± 0.05 | 0.0135 ± 0.037 | 0.081 ± 0.0042 | -0.015 ± 0.037 | -0.0175 ± 0.063 | -0.033 ± 0.021 | 0.011 ± 0.011 | 0.005 ± 0.013 | 0.0225 ± 0.029
